From PMC7890096, “Binding of non-canonical peptidoglycan controls Vibrio cholerae broad spectrum racemase activity” (Computational and Structural Biotechnology Journal, 2021)

Tested on: BsrV
Assay: in vitro BsrV racemase assay (L-Ala substrate) with muropeptides, Marfey's/HPLC
Type: biochemical, Vibrio cholerae
Conditions: 4 mM L-Ala, 5 min at 37 °C, Bicarbonate buffer 50 mM pH 9, Fig. 3A; for inhibition of BsrV D-Ala production, in words: D-cycloserine 0.1 mM, tripeptide and D-Ala-D-Ala at equal concentration (amino acid, tripeptide/dipeptide), p dipeptide vs tripeptide = 0.0181, tripeptide vs M4 = 0.0027, M3R vs D-cycloserine < 0.0001
Procedure: For activity assays, in vitro LAA and DAAS were characterized with Marfey’s (FDAA)-derivatization in HPLC and DAAO assay (D-amino acid oxidase) performed as described. The product from a racemization reaction was derivatized with L-FDAA (1-fluoro-2-4-dinitrophenyl-5-L-alanine amide, Marfey’s reagent, Thermo Scientific). First, an equal volume of NaHCO3 0.5 M was added to the racemization reaction; then, 6 µL of this reaction was reacted with FDAA (10 mg/mL in acetone) at 80 °C for 3 min. The reaction was stopped with HCl 2 N and the samples were filtered. The products were separated with a linear gradient of triethylamine phosphate/acetonitrile in HPLC with an Aeris peptide column (250 × 4.6 mm; 3.6 μm particle size) (Phenomenex, USA) and detected at Abs.340 nm. To determine the inhibition effect of the sacculus in BsrV's activity, 35 µg of sacculi were incubated for 5 min at 37 °C with BsrV and 4 mM of L-Ala in Tris-HCl 50 mM pH 8. […] DAAO reaction was determined by coupling 10 µL of the extract into 150 µL of a reaction containing: sodium phosphate buffer 100 mM pH 7, Trigonopsis variabilis D-amino acid oxidase (DAAO) (Komarova et al., 2012) 3.6 U/ml, horseradish peroxidase 1 U/mL, o-phenylenediamine (OPD) 2 mg/mL and FAD 3 mg/ml. This two-step assay permits the quantification of H2O2 (DAAO is able to produce α-ketoacid, NH3 and H2O2 from DAA). Peroxidase reduces H2O2, […], leading to the production of 2,3–25 diaminophenazine. The reaction was incubated for 2 h at 37 °C and inactivated with HCl 3 M, giving a colorimetric product that can be measured at 492 nm. To determine the inhibition effect of muropeptides in BsrV's activity, 0.1 mM of M4 (GlcNAc-MurNAc-Ala-Glu-DAP (Diaminopimelate)-Ala), M3M (GlcNAc-MurNAc-Ala-Glu-DAP-Met), M3R (GlcNAc-MurNAc-Ala-Glu-DAP-Arg) and D-cycloserine were incubated with BsrV and 4 mM of L-Ala for 5 min at 37 °C (1/40 relation) in Bicarbonate buffer 50 mM pH 9. In the case of tripeptide and D-Ala-D-Ala, equal concentration (amino acid, tripeptide/dipeptide) was utilized.
Fig. 3 Peptidoglycan inhibits BsrV’s activity. (A) Inhibitory effect of muropeptides on BsrV activity. In vitro BsrV racemase assays with L-Ala as substrate in the presence of (see schematics): M4 (disaccharide tetrapeptide), M3M and M3R; the asterisk represents D-Met and D-Arg substitutions in the fourth position. […] P values: [dipeptide vs tripeptide] = 0.0181; [tripeptidevsM4] = 0.0027; [M4vsM3M] = 0.0003; [M4vsM3R] < 0.0003; [M3MvsM3R] = 0.2552; [M3RvsD-cycloserine] < 0.0001. (B) Inhibitory effect of peptidoglycan sacculi on BsrV activity. In vitro BsrV racemase assays with L-Ala as substrate in the presence of undigested sacculi (see schematics). Sugar rings are represented by hexagons and peptides are depicted. […]

| Compound | inhibition of BsrV D-Ala production, in words | reduction in D-Ala production (% of inhibition) (0.1 mM muropeptide, Marfey's derivatization, HPLC 340 nm, vs control reaction with no inhibitor, single time point, p M4 vs M3M = 0.0003, M4 vs M3R < 0.0003, M3M vs M3R = 0.2552) |
| --- | --- | --- |
| N[C@@H]1CON=C1O [D-cycloserine] | inhibit the least | – |
| CC(=O)N[C@H]1[C@H](O[C@H]2[C@H](O[C@H](C)C(=O)N[C@@H](C)C(=O)N[C@H](CCC(=O)N[C@@H](CCC[C@@H](N)C(=O)O)C(=O)N[C@H](C)C(=O)O)C(=O)O)[C@@H](NC(C)=O)C(O)O[C@@H]2CO)O[C@H](CO)[C@@H](O)[C@@H]1O (stereo partly drawn) [M4, GlcNAc-MurNAc-Ala-Glu-DAP-Ala] | – | ~ 20% |
| D-Ala-D-Ala [dipeptide] | inhibit the least | – |
| L-Ala-D-Glu-D-Lys [tripeptide] | inhibit the least | – |
